Measurements from patent US20200187499A1, “SUBSTITUTED BENZYL-4-AMINOPICOLINIC ESTERS AND PYRIMIDINO-4-CARBOXYLIC ESTERS, METHODS FOR THE PRODUCTION THEREOF, AND USE THEREOF AS HERBICIDES AND PLANT GROWTH REGULATORS” (Bayer CropScience Aktiengesellschaft, priority 2017, published 2020).

Key:
Assay type in all cases: in vivo
[1] = system: ALOMY; assay: Pre-emergence herbicidal action; details: 320 g/ha, scored after 3 weeks
In short: (§1)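 Seeds sown in sandy loam and covered; WP or EC formulations sprayed onto the soil surface as aqueous suspension/emulsion at 600–800 l/ha water with 0.2% wetting agent. Greenhouse-grown 3 weeks, then damage scored visually against untreated controls (0% = like control, 100% = dead).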

[2] = system: VIOTR; assay: Pre-emergence herbicidal action; details: Table 2, pre-emergence (PE), 320 g/ha, scored after 3 weeks
In short: as §1

[3] = system: SETVI; assay: Pre-emergence herbicidal action; details: 320 g/ha, scored after 3 weeks
In short: as §1

[4] = system: ECHCG; assay: Pre-emergence herbicidal action; details: 320 g/ha, scored after 3 weeks
In short: as §1

[5] = system: AMARE; assay: Pre-emergence herbicidal action; details: 320 g/ha, scored after 3 weeks
In short: as §1

[6] = system: ABUTH; assay: Pre-emergence herbicidal action; details: 320 g/ha, scored after 3 weeks
In short: as §1

[7] = system: POLCO; assay: Pre-emergence herbicidal action; details: Table 2, pre-emergence (PE), 320 g/ha, scored after 3 weeks
In short: as §1

[8] = system: PHBPU; assay: Post-emergence herbicidal action; details: Table 5, post-emergence (PO), 320 g/ha, assessed after about 3 weeks
In short: (§2)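 Percent herbicidal activity was judged by eye roughly 3 weeks post-treatment, where 0% matched untreated plants and 100% meant death. Test plants at the one-leaf stage had received a foliar spray of WP- or EC-formulated compound in aqueous form.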

[9] = system: STEME; assay: Post-emergence herbicidal action; details: 320 g/ha, assessed after about 3 weeks
In short: as §2

[10] = system: VIOTR; assay: Post-emergence herbicidal action; details: Table 5, post-emergence (PO), 320 g/ha, assessed after about 3 weeks
In short: as §2

[11] = system: SETVI; assay: Post-emergence herbicidal action; details: 320 g/ha, assessed after about 3 weeks
In short: as §2

[12] = system: ECHCG; assay: Post-emergence herbicidal action; details: Table 5, post-emergence (PO), 320 g/ha, assessed after about 3 weeks
In short: as §2

[13] = system: AMARE; assay: Post-emergence herbicidal action; details: 320 g/ha, assessed after about 3 weeks
In short: as §2

[14] = system: ABUTH; assay: Post-emergence herbicidal action; details: 320 g/ha, assessed after about 3 weeks
In short: as §2

[15] = system: POLCO; assay: Post-emergence herbicidal action; details: Table 5, post-emergence (PO), 320 g/ha, assessed after about 3 weeks
In short: as §2

SMILES | Herbicidal action against ALOMY ([1]; Table 2, pre-emergence (PE)) [%] | Herbicidal action against VIOTR [2] [%] | Herbicidal action against SETVI ([3]; Table 2, pre-emergence (PE)) [%] | Herbicidal action against ECHCG ([4]; Table 2, pre-emergence (PE)) [%] | Herbicidal action against AMARE ([5]; Table 2, pre-emergence (PE)) [%] | Herbicidal action against ABUTH ([6]; Table 2, pre-emergence (PE)) [%] | Herbicidal action against POLCO [7] [%] | Herbicidal action against PHBPU [8] [%] | Herbicidal action against STEME ([9]; Table 5, post-emergence (PO)) [%] | Herbicidal action against VIOTR [10] [%] | Herbicidal action against SETVI ([11]; Table 5, post-emergence (PO)) [%] | Herbicidal action against ECHCG [12] [%] | Herbicidal action against AMARE ([13]; Table 5, post-emergence (PO)) [%] | Herbicidal action against ABUTH ([14]; Table 5, post-emergence (PO)) [%] | Herbicidal action against POLCO [15] [%] | Herbicidal action against STEME ([9]; Table 6, post-emergence (PO)) [%] | Herbicidal action against SETVI ([11]; Table 6, post-emergence (PO)) [%] | Herbicidal action against AMARE ([13]; Table 6, post-emergence (PO)) [%] | Herbicidal action against ABUTH ([14]; Table 6, post-emergence (PO)) [%] | other results
Nc1cc(-c2ccc3occc3c2)nc(C(=O)OCc2ccc(F)c(F)c2F)c1Cl [Example I-13] | 80 | 30 | 100 | 90 | 100 | 30 | 100 | 80 | 100 | 100 | 90 | 90 | 100 | 100 | 100 | – | – | – | – | –
Nc1cc(-c2ccc3ccsc3c2)nc(C(=O)OCc2ccc(F)cc2)c1Cl [Example I-07, 4-fluorobenzyl 4-amino-6-(1-benzothiophen-6-yl)-3-chloropyridine-2-carboxylate] | 90 | 50 | 90 | 100 | 100 | 80 | 100 | 80 | 0 | 60 | 100 | 90 | 100 | 100 | 80 | – | – | – | – | –
Nc1c(F)c(-c2ccc3ccoc3c2)nc(C(=O)OCc2ccc(F)cc2)c1Cl [Example I-04] | 40 | 40 | 70 | 90 | 100 | 90 | 50 | 40 | 100 | 50 | 90 | 100 | 100 | 100 | 80 | – | – | – | – | –
Nc1c(Cl)c(C(=O)OCc2cccc(C(F)(F)F)c2)nc(Cl)c1-c1ccc2sccc2c1 [Example I-21, 3-(trifluoromethyl)benzyl 4-amino-6-chloro-(1-benzothiophen-5-yl)-3-chloropyridine-2-carboxylate] | – | – | – | – | – | – | – | 80 | 90 | 80 | 90 | 90 | 100 | 90 | 40 | – | – | – | – | Herbicidal action against ALOMY ([1]; Table 3, pre-emergence (PE)): 40%; Herbicidal action against SETVI ([3]; Table 3, pre-emergence (PE)): 80%; Herbicidal action against ECHCG ([4]; Table 3, pre-emergence (PE)): 100%; Herbicidal action against AMARE ([5]; Table 3, pre-emergence (PE)): 60%; Herbicidal action against ABUTH ([6]; Table 3, pre-emergence (PE)): 50%
COc1c(F)ccc(COC(=O)c2nc(-c3ccc4ccsc4c3)cc(N)c2Cl)c1F [Example I-08] | 60 | 20 | 90 | 100 | 100 | 0 | 100 | – | – | – | – | – | – | – | – | 100 | 70 | 100 | 100 | –
Nc1cc(-c2ccc3occc3c2)nc(C(=O)OCc2cc(F)c(F)cc2F)c1Cl [Example I-06] | 80 | 60 | 90 | 100 | 100 | 20 | 100 | – | – | – | – | – | – | – | – | 100 | 90 | 100 | 100 | –
Nc1cc(-c2ccc3ccsc3c2)nc(C(=O)OCc2ccc(F)cc2F)c1Cl [Example I-12] | 70 | 20 | 90 | 100 | 100 | 20 | 100 | – | – | – | – | – | – | – | – | 100 | 100 | 100 | 90 | –
Nc1cc(-c2ccc3sccc3c2)nc(C(=O)OCc2ccc(Cl)cc2)c1Cl [Example I-19] | – | – | – | – | – | – | – | 100 | 100 | 80 | 80 | 100 | 100 | 90 | 0 | – | – | – | – | Herbicidal action against ALOMY ([1]; Table 3, pre-emergence (PE)): 60%; Herbicidal action against SETVI ([3]; Table 3, pre-emergence (PE)): 50%; Herbicidal action against ECHCG ([4]; Table 3, pre-emergence (PE)): 50%; Herbicidal action against AMARE ([5]; Table 3, pre-emergence (PE)): 100%; Herbicidal action against ABUTH ([6]; Table 3, pre-emergence (PE)): 70%
Nc1c(F)c(-c2ccc3sccc3c2)nc(C(=O)OCc2ccc(F)cc2)c1Cl [Example I-29] | – | – | – | – | – | – | – | 40 | 80 | 50 | 80 | 90 | 100 | 80 | 90 | – | – | – | – | Herbicidal action against ALOMY ([1]; Table 3, pre-emergence (PE)): 80%; Herbicidal action against SETVI ([3]; Table 3, pre-emergence (PE)): 70%; Herbicidal action against ECHCG ([4]; Table 3, pre-emergence (PE)): 80%; Herbicidal action against AMARE ([5]; Table 3, pre-emergence (PE)): 100%; Herbicidal action against ABUTH ([6]; Table 3, pre-emergence (PE)): 70%
Nc1cc(-c2ccc3occc3c2)nc(C(=O)OCc2c(F)cc(F)cc2F)c1Cl [Example I-20] | 70 | 40 | 100 | 100 | 100 | 50 | 100 | – | – | – | – | – | – | – | – | 100 | 100 | 100 | 100 | –
Nc1cc(-c2ccc3occc3c2)nc(C(=O)OCc2ccc(C(F)(F)F)cc2)c1Cl [Example I-36] | 50 | 0 | 90 | 90 | 100 | 90 | 90 | – | – | – | – | – | – | – | – | 100 | 80 | 100 | 100 | –
